# Legend:
# [1] = test system: cucumber gray mold fungus (Botrytis cinerea); assay: Preventive test against gray mold on cucumber cotyledon leaves, spray treatment, preventive value and Colby expected value (Test Examples 1-4); format: in vivo; settings: single compound
# Procedure: Using the following compound listed in Table 2 (the active ingredient A) and the compound listed in Table 5 through Table 15 (active ingredient B), an agent was prepared in accordance with the above Formulation Example. This agent was diluted with water to a predetermined concentration to obtain a test solution. Then, cucumber (variety: Sagami-hanjiro) was planted in a plastic pot of 90 cm^3, and in the cotyledon stage, 5 ml of the obtained test solution, was sprayed by a spray gun and air-dried. Thereafter, the treated leaf was cut off and placed in a plastic container which filled approximately 0.5 cm in depth water. A suspension of conidia of cucumber gray mold fungus (Botrytis cinerea) and a dissolved PDA culture medium were mixed at a ratio of 1:1 (mass ratio), and the mixture was dropped to inoculate the treated leaf with 30 μl. After the inoculation, the plastic container was sealed and left at 20° C. for 3 days, the ratio of the formed lesion occupying the inoculated leaf was measured, and the preventive value was calculated in accordance with the following calculation formula. Preventive value=[1−(treated plot lesion area ratio/untreated plot lesion area ratio)]×100
# Further, from the preventive value at each agent concentration, synergy was calculated by using the Colby method (Colby S. R. 1976, Weeds 15, 20-22). The calculation method is as follows. E=X+Y−XY/100
# X: preventive value of A agent at x concentration
# Y: preventive value of B agent at y concentration
# E: theoretical value expected by treatment of the mixture of A agent and B agent.
# The obtained result is analyzed to be synergy if the observed value is larger than the expected value, to be antagonism if the expected value is larger than the observed value, and to be an additive effect if the observed value and the expected value are the same.
# Using the following compound listed in Table 2 (active ingredient A) and the following compound listed in Table 5 through Table 15 (active ingredient B) as active ingredients, a preventive test against gray mold was conducted in accordance with the method described in Test Example 1.
# Using the following compound listed in Table 2 (active ingredient A) and the following compound listed in Table 5 or Table 6 (active ingredient B) as active ingredients, a preventive test against gray mold was conducted in accordance with the method described in Test Example 1.
# Using the following compound listed in Table 2 (active ingredient A) and the following compound listed in Table 6 through Table 16 (active ingredient B) as active ingredients, a preventive test against gray mold was conducted in accordance with the method described in Test Example 1.
# [2] = test system: rice sheath blight fungus (Rhizoctonia solani); assay: Efficacy test on rice sheath blight, spray treatment and prevention test (Test Examples 5-6); format: in vivo; settings: single compound 250 ppm, lesion height
# Procedure: An agent comprising the following compound listed in Table 2 (active ingredient A) and the compound listed in Table 6 (C17: active ingredient B) as active ingredients, was prepared in accordance with the above Formulation Example. The agent was diluted with water to a predetermined concentration to obtain a test solution. Then, in a plastic pot of 90 cm^3, rice (Nipponbare) was seeded by 5 grains in one place, and to the grown seedlings in 4 seedling phase, the test solution was applied by a spray gun in an amount of 5 ml per pot, for treatment.
# One day after the treatment, 1 g of mycelium flora of rice sheath blight fungus (Rhizoctonia solani) cultured in bran medium, was put by […] to a close-to-ground part of seedlings, and the pot was placed in a moist chamber set in temperature of 25° C. and humidity more than 95% RH for eight days. The height of the lesions which appeared in the highest position from the close-to-ground part (lesion height) was investigated, and the preventive value was calculated in accordance with the following formula. Preventive value=[1−(treated plot lesion height/untreated plot lesion height)]×100
# (§1) Further, from the preventive value for each agent concentration, synergy was calculated by using the Colby method (Colby S. R. 1976, Weeds 15, 20-22).
# Using the following compound listed in Table 2 (active ingredient A) and the compound listed in Table 6 (C17: active ingredient B) as active ingredients, a preventive test on rice sheath blight was conducted in accordance with the above Test Example 5.
# [3] = test system: cucumber downy mildew (Pseudoperenospora cubensis); assay: Efficacy test on cucumber downy mildew, spray treatment and prevention test (Test Example 7); format: in vivo; settings: single compound 250 ppm; lesion area ratio
# Procedure: An agent comprising the following compound listed in Table 2 (active ingredient A) and the compound listed in Table 6 (C40: active ingredient B) as active ingredients, was prepared in accordance with the above Formulation Example. This agent was diluted with water to a predetermined concentration to obtain a test solution. Then, to seedlings of cucumber (variety: Sagami-hanjiro) at 1.5-leaf stage grown in a pot with a diameter of 7 cm, the test solution was applied by a spray gun in an amount of 10 ml per pot, for treatment. One day after the treatment, a spore suspension (2×100,000 cfu/ml) of cucumber downy mildew (Pseudoperenospora cubensis), was spray-inoculated, and the pot was placed in a moist chamber set in temperature of 20° C. and humidity more than 95% RH for 24 hours. After placing the pot in a glass greenhouse for 6 days, the ratio of the formed lesion area occupying the inoculated leaves was measured, and the preventive value was calculated in accordance with the following formula. Preventive value=[1−(treated plot lesion area ratio/untreated plot lesion area ratio)]×100
# as §1
# [4] = test system: wheat glume blotch (Leptosphaeria nodorum); assay: Efficacy test on wheat glume blotch, spray treatment and prevention test (Test Example 8); format: in vivo; settings: spray, lesion area ratio
# Procedure: An agent comprising the following compound listed in Table 2 (active ingredient A) and the following compound listed in Table 6, Table 11 or Table 15 (active ingredient B) as active ingredients, was prepared in accordance with the above Formulation Example. This agent was diluted with water to a predetermined concentration to obtain a test solution. Then, to seedlings of wheat (variety: Haruyutaka) at the 1-leaf stage, seeded in a pot with a diameter of 7 cm, with 5 seeds per pot, and grown for 7 days, the test solution was applied by a spray gun in an amount of 5 ml per pot, for treatment. One day after the treatment, a spore suspension (1×100,000 cfu/ml) of wheat glume blotch (Leptosphaeria nodorum) was spray-inoculated, and the pot was placed in a moist chamber set in temperature of 20° C. and humidity more than 95% RH for 48 hours. After placing the pot in a glass greenhouse for 7 days, the ratio of the formed lesion area occupying the inoculated leaves was measured, and the preventive value was calculated in accordance with the following formula. Preventive value=[1−(treated plot lesion area ratio/untreated plot lesion area ratio)]×100
# as §1
# [5] = test system: wheat powdery mildew (Blumeria graminis); assay: Efficacy test on wheat powdery mildew, seed treatment (Test Example 10); format: in vivo; settings: wheat (Norin 61)
# Procedure: An agent comprising the following compound listed in Table 2 (active ingredient A) and the compound listed in Table 11 (H35: active ingredient B) as active ingredients, was prepared in accordance with the above Formulation Example. This agent was diluted with water to a predetermined concentration to obtain a test solution. A predetermined amount of test solution was put in a glass bottle of 5 ml, and 0.5 g (approximately 15 grains) of wheat seeds (variety: Norin 61) were added, stirred and air-dried. In each pot with a diameter of 7 cm and having soil put therein, 3 grains were seeded and grown for 14 days. To the wheat seedlings grown to the 1-leaf stage, a spore suspension (100,000 cfu/ml) of wheat powdery mildew (Blumeria graminis) was spray-inoculated. After placing the pot in a glass greenhouse for 10 days, the ratio of the formed lesion area occupying the inoculated leaves was measured, and the preventive value was calculated in accordance with the following formula. Preventive value=[1−(treated plot lesion area ratio/untreated plot lesion area ratio)]×100
# (§2) Further, from the preventive value at each agent concentration, synergy was calculated by using the Colby method (Colby S. R. 1976, Weeds 15, 20-22).
# [6] = test system: cucumber powdery mildew (Sphaerotheca cucurbitae); assay: Efficacy test on cucumber powdery mildew, irrigation treatment (Test Example 11); format: in vivo; settings: concentration 500 ppm, cucumber (Sagami-hanjiro)
# Procedure: An agent comprising the following compound listed in Table 2 (active ingredient A) and the compound listed in Table 6 (C18: active ingredient B), was prepared in accordance with the above Formulation Example. This agent was diluted with water to a predetermined concentration to obtain a test solution. 5 ml of the test solution was irrigated by a pipette to the close-to-ground part of cucumber seedlings at the 1 leaf stage (variety: Sagami-hanjiro), grown in a styrol cup with a diameter of 10 cm, and next day, the seedlings were transplanted to the to 4 cun pots. Then, after cultivation for 7 days in a glass greenhouse, to the first true leaf of the cucumber, a spore suspension (100,000 cfu/ml) of cucumber powdery mildew (Sphaerotheca cucurbitae) was inoculated by spraying. After 10 days in a glass greenhouse, the ratio of the formed lesion area occupying the inoculated leaves was measured, and the preventive value was calculated in accordance with the following formula. Preventive value=[1−(treated plot lesion area ratio/untreated plot lesion area ratio)]×100
# as §2
# [7] = processing amount 5 mg/1 g seed
# [8] = processing amount 10 mg/1 g seed
melting point [°C],Compound,"Preventive value ([1]; Test Example 2, 3 ppm spray)","Preventive value ([1]; Test Example 3, 3 ppm spray)","Preventive value ([1]; Test Example 4, 3 ppm spray)",Preventive value ([2]; Test Example 6),Preventive value [3],Preventive value ([4]; single compound 3 ppm),Preventive value ([4]; single compound 10 ppm),"Preventive value [5, 7]","Preventive value [5, 8]",Preventive value [6],"Preventive value ([1]; Test Example 1, 3 ppm spray)",Preventive value ([2]; Test Example 5),"Preventive value ([1]; Test Example 2, 1 ppm spray)","Preventive value ([1]; Test Example 3, 1 ppm spray)","Preventive value ([1]; Test Example 4, 1 ppm spray)"
–,O=C(NCC(=NOCC(F)(F)F)c1ncc(Cl)cc1Cl)c1ccccc1C(F)(F)F [compound 33],45,45,50,4,0,20,45,20,61,15,–,–,–,–,–
–,CC#Cc1cnc(C(CNC(=O)c2ccccc2C(F)(F)F)=NOC(C)C)c(Cl)c1 [compound 18],–,85,75,–,0,50,65,62,98,35,88,8,–,–,–
–,CON=C(CNC(=O)c1cccnc1Cl)c1ncc(C#CC(C)(C)C)cc1Cl [compound 35],–,90,88,5,0,50,70,20,61,30,88,–,–,–,–
–,CCC(C)ON=C(CNC(=O)c1cn(C)nc1C(F)F)c1ncc(C#CC2CC2)cc1Cl (mixture of isomers) [Compound No. 27],50,55,45,8,0,75,85,85,90,60,–,–,–,–,–
74 to 76,"CO/N=C(/CNC(=O)c1ccccc1C(F)(F)F)c1ncc(Cl)c(OC)c1Cl [Compound No. 8, (Z)—N-[2-[3,5-dichloro-4-(methoxy)pyridin-2-yl]-2-(methoxyimino)ethyl]-2-(trifluoromethyl)benzamide]",–,–,–,–,–,–,–,–,–,–,–,–,–,–,–
–,CON=C(CNC(=O)c1ccccc1C(F)(F)F)c1ncc(C#CC2CC2)cc1Cl [compound 36],–,80,80,–,0,55,70,99,100,35,75,0,–,–,–
–,CC#Cc1cnc(C(CNC(=O)c2cn(C)nc2C(F)F)=NOC(C)(C)C)c(Cl)c1 [compound 34],–,–,–,5,5,80,85,20,85,60,–,–,63,70,50
